Data: ChEMBL document CHEMBL3885861, “Open TG-GATES”

Species on record: Rattus norvegicus
Assay: Open TG-GATES - Regimen: Single
Type: toxicity, organism-based, Sprague-Dawley
Set-up: regimen Single, gender Male, age 6 weeks
Conditions: in vivo, po, 0 mg/kg, route gavage, dose level Control; for APTT / Bas / Eos / Fbg / Hb / Ht / Lym / MCH / MCHC / MCV / Mono / Neu / PT / Plat / RBC / Ret / WBC: tissue Blood; for KIDNEY_L / KIDNEY_R / KIDNEY_TOTAL: tissue Kidney; for LIVER: tissue Liver; for A/G / ALP / ALT / AST / BUN / CRE / Ca / Cl / DBIL / GLC / IP / K / LDH / Na / PL / RALB / TBIL / TC / TG / TP / gamma-GTP: tissue Plasma

In the case of CN(C/C=C/C#CC(C)(C)C)Cc1cccc2ccccc12 [TERBINAFINE], the TERMINAL_BW (3 h) is reported as 225.4 g, the APTT (3 h) is reported as 18.8 s and the Bas (3 h) is reported as 0.6%. For the same compound, the Eos (3 h) was 0.8%, the Fbg (3 h) was 226 mg/dL and the Hb (3 h) was 13.2 g/dL. The Ht (3 h) was 39.2%, the Lym (3 h) was 81.8% and the MCH (3 h) was 21.8 pg. It also gave an MCHC (3 h) of 33.7%, an MCV (3 h) of 64.7 fL and a Mono (3 h) of 2.4%. For the same compound, the Neu (3 h) was 13.6%, the PT (3 h) was 12.1 s and the Plat (3 h) was 121.7 x10_4/uL. The RBC (3 h) was 606.2 x10_4/ul, the Ret (3 h) was 7.5% and the WBC (3 h) was 116.5 x10_2/uL. The KIDNEY_L (3 h) was 1.1 g, the KIDNEY_R (3 h) was 1 g and the KIDNEY_TOTAL (3 h) was 2.1 g. For the same compound, the LIVER (3 h) was 10.9 g, the A/G (3 h) was 1.7 and the ALP (3 h) was 1027 IU/L. It also gave an ALT (3 h) of 40.4 IU/L, an AST (3 h) of 72.4 IU/L and a BUN (3 h) of 12 mg/dL. The CRE (3 h) was 0.4 mg/dL, the Ca (3 h) was 10.8 mg/dL and the Cl (3 h) was 101.8 meq/L. For the same compound, the DBIL (3 h) was 0.074 mg/dL, the GLC (3 h) was 202.2 mg/dL and the IP (3 h) was 9 mg/dL. It also gave a K (3 h) of 3.7 meq/L, an LDH (3 h) of 154.4 IU/L and a Na (3 h) of 140.8 meq/L. It also gave a PL (3 h) of 151.8 mg/dL, an RALB (3 h) of 3.4 g/dL and a TBIL (3 h) of 0.1 mg/dL. It also gave a TC (3 h) of 85.4 mg/dL, a TG (3 h) of 68.4 mg/dL and a TP (3 h) of 5.5 g/dL. It also gave a gamma-GTP (3 h) of 1 IU/L, a TERMINAL_BW (6 h) of 222.8 g and an APTT (6 h) of 19 s. The Bas (6 h) was 0.6%, the Eos (6 h) was 0.8% and the Fbg (6 h) was 229.4 mg/dL. The Hb (6 h) was 13.7 g/dL, the Ht (6 h) was 40.5% and the Lym (6 h) was 72.6%. The MCH (6 h) was 21.1 pg, the MCHC (6 h) was 33.8% and the MCV (6 h) was 62.3 fL. It also gave a Mono (6 h) of 3.2%, a Neu (6 h) of 22.4% and a PT (6 h) of 12 s. The Plat (6 h) was 132.2 x10_4/uL, the RBC (6 h) was 650.8 x10_4/ul and the Ret (6 h) was 6.6%. The WBC (6 h) was 113 x10_2/uL, the KIDNEY_L (6 h) was 1 g and the KIDNEY_R (6 h) was 1 g. The KIDNEY_TOTAL (6 h) was 2 g, the LIVER (6 h) was 9.9 g and the A/G (6 h) was 1.7. It also gave an ALP (6 h) of 967.6 IU/L, an ALT (6 h) of 34.8 IU/L and an AST (6 h) of 69.6 IU/L. It also gave a BUN (6 h) of 10.6 mg/dL, a CRE (6 h) of 0.4 mg/dL and a Ca (6 h) of 10.8 mg/dL. The Cl (6 h) was 102.8 meq/L, the DBIL (6 h) was 0.074 mg/dL and the GLC (6 h) was 197.2 mg/dL. The IP (6 h) was 8.8 mg/dL, the K (6 h) was 3.8 meq/L and the LDH (6 h) was 147.4 IU/L. The Na (6 h) was 140.6 meq/L, the PL (6 h) was 133.4 mg/dL and the RALB (6 h) was 3.5 g/dL. The TBIL (6 h) was 0.1 mg/dL, the TC (6 h) was 76.2 mg/dL and the TG (6 h) was 59.2 mg/dL. The TP (6 h) was 5.5 g/dL, the gamma-GTP (6 h) was 1 IU/L and the TERMINAL_BW (9 h) was 219.8 g. It also gave an APTT (9 h) of 18.2 s, a Bas (9 h) of 0.6% and an Eos (9 h) of 1%. For the same compound, the Fbg (9 h) was 229 mg/dL, the Hb (9 h) was 13.4 g/dL and the Ht (9 h) was 39.8%. For the same compound, the Lym (9 h) was 73.8%, the MCH (9 h) was 20.9 pg and the MCHC (9 h) was 33.5%. The MCV (9 h) was 62.5 fL, the Mono (9 h) was 1.8% and the Neu (9 h) was 22.4%. It also gave a PT (9 h) of 12.2 s, a Plat (9 h) of 119.3 x10_4/uL and an RBC (9 h) of 637.4 x10_4/ul. The Ret (9 h) was 6.8%, the WBC (9 h) was 89.2 x10_2/uL and the KIDNEY_L (9 h) was 1 g. The KIDNEY_R (9 h) was 1 g, the KIDNEY_TOTAL (9 h) was 2 g and the LIVER (9 h) was 9.3 g. The A/G (9 h) was 1.6, the ALP (9 h) was 810.4 IU/L and the ALT (9 h) was 31 IU/L. The AST (9 h) was 62.8 IU/L, the BUN (9 h) was 11.8 mg/dL and the CRE (9 h) was 0.4 mg/dL. For the same compound, the Ca (9 h) was 10.5 mg/dL, the Cl (9 h) was 103.6 meq/L and the DBIL (9 h) was 0.066 mg/dL. The GLC (9 h) was 204.2 mg/dL, the IP (9 h) was 9.8 mg/dL and the K (9 h) was 3.9 meq/L. For the same compound, the LDH (9 h) was 167.6 IU/L, the Na (9 h) was 141.4 meq/L and the PL (9 h) was 136.4 mg/dL. It also gave an RALB (9 h) of 3.4 g/dL, a TBIL (9 h) of 0.1 mg/dL and a TC (9 h) of 70.2 mg/dL. It also gave a TG (9 h) of 62 mg/dL, a TP (9 h) of 5.6 g/dL and a gamma-GTP (9 h) of 1.4 IU/L. It also gave a TERMINAL_BW (24 h) of 238.7 g, an APTT (24 h) of 18.9 s and a Bas (24 h) of 0.8%. The Eos (24 h) was 1%, the Fbg (24 h) was 236.8 mg/dL and the Hb (24 h) was 13.2 g/dL. For the same compound, the Ht (24 h) was 39.1%, the Lym (24 h) was 79.2% and the MCH (24 h) was 21.6 pg. It also gave an MCHC (24 h) of 33.7%, an MCV (24 h) of 64.3 fL and a Mono (24 h) of 2.8%. The Neu (24 h) was 16.4%, the PT (24 h) was 11.8 s and the Plat (24 h) was 132.1 x10_4/uL. It also gave an RBC (24 h) of 608.4 x10_4/ul, a Ret (24 h) of 6.3% and a WBC (24 h) of 97.8 x10_2/uL. It also gave a KIDNEY_L (24 h) of 1 g, a KIDNEY_R (24 h) of 1 g and a KIDNEY_TOTAL (24 h) of 2 g. It also gave an LIVER (24 h) of 11.6 g, an A/G (24 h) of 1.6 and an ALP (24 h) of 986.4 IU/L. For the same compound, the ALT (24 h) was 36.4 IU/L, the AST (24 h) was 74.4 IU/L and the BUN (24 h) was 15.4 mg/dL. The CRE (24 h) was 0.4 mg/dL, the Ca (24 h) was 10.9 mg/dL and the Cl (24 h) was 103.6 meq/L. The DBIL (24 h) was 0.1 mg/dL, the GLC (24 h) was 196.8 mg/dL and the IP (24 h) was 7.4 mg/dL. For the same compound, the K (24 h) was 4.2 meq/L, the LDH (24 h) was 189.4 IU/L and the Na (24 h) was 141.2 meq/L. For the same compound, the PL (24 h) was 152 mg/dL, the RALB (24 h) was 3.5 g/dL and the TBIL (24 h) was 0.2 mg/dL. The TC (24 h) was 74.4 mg/dL, the TG (24 h) was 107.8 mg/dL and the TP (24 h) was 5.7 g/dL. The gamma-GTP (24 h) was 1.6 IU/L.
